Results: patent US20170112861A1, “DRUG DELIVERY ENHANCER COMPRISING SUBSTANCE FOR ACTIVATING LYSOPHOSPHOLIPID RECEPTORS” (Osaka University, priority 2014, published 2017)

Experiments:
[1] = system: LLC cell tumors; test: Doxorubicin delivery from tumor blood vessels to tumor tissues after LPA administration; assay type: in vivo; settings: LLC tumor-bearing mice, LPA 3 mg/kg i.p., doxorubicin 1.5 mg/kg i.v. 24 hours later, tumors harvested after 20 minutes
Description: LLC cells were subcutaneously inoculated into C57BL/6 NCrSlc mice aged 8 weeks (females, SLC, Inc.) in the same manner as in Example 1. An LPA administration solution was prepared in the same manner as in Example 1. On day 11 post-inoculation of LLC cells, mice with a tumor volume of 100 to 120 mm^3 were selected. The mice were divided into two groups: control group and LPA group (n=3). LPA (3 mg/kg in 100 μL PBS) or PBS (100 μL) was administered intraperitoneally. At 24 hours after LPA or PBS administration, doxorubicin (doxorubicin hydrochloride, Nippon Kayaku Co., Ltd.) was administered to the tail vein of the mice at a dose of 1.5 mg/kg under anesthesia with pentobarbital. The doxorubicin was prepared as a solution by dissolving and diluting the doxorubicin hydrochloride in physiological saline (Otsuka Pharmaceutical Co., Ltd.) to a concentration of 1.5 mg/kg and homogenizing the solution with an ultrasonic cleaner for 1 minute before administration. Doxorubicin is an autofluorescent anticancer drug that can be detected at an excitation wavelength of 480 nm and a measurement wavelength of 575 nm. At 20 minutes after administration of doxorubicin, the tumors were harvested from the mice, and the tumor specimens were prepared in the same manner as in Example 1 except that the thickness of the sections was 20 μm. […]

[2] = system: VE-cadherin in tumor blood vessels of LLC cell tumors; test: VE-cadherin expression in vascular endothelial cells of tumors after LPA administration; assay type: in vivo, mice; settings: LPA 3 mg/kg i.p., 24 hours after administration
Description: LLC cells were subcutaneously inoculated into C57BL/6 NCrSlc mice aged 8 weeks (females, SLC, Inc.) in the same manner as in Example 1. An LPA administration solution was prepared in the same manner as in Example 1. Mice on day 9 post-inoculation of LLC cells (individuals with a tumor volume of 60 to 80 mm^3) were subjected to the experiment. The mice were divided into two groups: control group and LPA group (n=3). LPA was intraperitoneally administered to the mice of the LPA group at a dose of 3 mg/kg in 100 μL PBS. The tumors of the control group were harvested just after grouping, and the tumors of the LPA group were harvested at 24 hours after LPA administration. The tumor tissue specimens were immunostained in the same manner as in Example 1 except that the primary antibody and the secondary antibody were changed. The primary antibody was Purified […] Anti-mouse VE-cadherin (BD pharmingen), and the anti-mouse VE-cadherin antibody was diluted to 200-fold in blocking solution. The secondary antibody was Alexa Fluor 488 Goat Anti-rat IgG (Life technologies), and the antibody was diluted to 400-fold in blocking solution. The prepared specimens were observed and photographed under a confocal laser microscope (Leica). Z-stack images were acquired using a confocal laser microscope and analyzed for the expression level (fluorescence intensity) of VE-cadherin.

[3] = system: LLC cells; test: Combined administration of LPA and 5-FU, tumor growth in LLC cell tumor-bearing mice; assay type: in vivo
Description: (§1) LLC cells were subcutaneously inoculated into C57BL/6 NCrSlc mice aged 8 weeks in the same manner as in Example 1. An LPA administration solution was prepared in the same manner as in Example 1. The anticancer drug used was 5-FU (Kyowa Hakko Kirin Co., Ltd.). The 5-FU was prepared as a solution in physiological saline (Otsuka Pharmaceutical Co., Ltd.). On day 7 post-inoculation of LLC cells, mice with a tumor volume of 30 to 50 mm^3 were selected and subjected to the test. The mice were divided into four groups: control group, 5-FU group, LPA group and 5-FU/LPA group (n=3). LPA (3 mg/kg in 100 μL PBS) or 5-FU (100 mg/kg in 100 μL PBS) or PBS (100 μL) was administered intraperitoneally. To 5-FU/LPA group, both LPA and 5-FU were administered intraperitoneally. LPA and PBS were administered once daily for consecutive seven days. 5-FU was administered twice in total, once a week for two weeks (on days 7 and 14 post-inoculation). The tumor size was measured over time after start of administration. The tumor volume was calculated by the formula: volume=length×width×height×0.5. Mice at 2 weeks after start of administration were photographed with a digital camera under anesthesia with pentobarbital. The tumors were harvested and photographed with a digital camera.

[4] = system: Mouse melanoma B16-BL6 cells; test: Combined administration of LPA and 5-FU, tumor growth in B16-BL6 cell tumor-bearing mice; assay type: in vivo; settings: B16-BL6 tumors; LPA 3 mg/kg i.p. once daily for seven days; 5-FU 100 mg/kg i.p. on days 7 and 14
Description: as §1
Mouse melanoma B16-BL6 cells were used. […]

[5] = system: LLC cell tumors; test: Delivery of FITC-labeled dextrans (70 kDa, 2000 kDa) to tumor tissues after LPA administration; assay type: in vivo; settings: LLC tumor-bearing mice, LPA 3 mg/kg i.p., dextran i.v. 24 hours later, tumors harvested after 30 minutes
Description: LLC cells were subcutaneously inoculated into C57BL/6 NCrSlc mice aged 8 weeks (females, SLC, Inc.) in the same manner as in Example 1. An LPA administration solution was prepared in the same manner as in Example 1. On day 11 post-inoculation of LLC cells, mice with a tumor volume of 100 to 120 mm^3 were selected. The mice were divided into four groups: control and LPA groups with administration of 70 kDa dextran, and control and LPA groups with administration of 2000 kDa dextran (n=3). LPA (3 mg/kg in 100 μL PBS) or PBS (100 μL) was administered intraperitoneally. At 24 hours after LPA or PBS administration, each type of dextran was administered to the tail vein of the mice under anesthesia with pentobarbital. The dextrans used (70 kDa and 2000 kDa) were FITC-labeled dextrans (Sigma). Each type of dextran was prepared as a solution by dissolving and diluting the FITC-labeled dextran in PBS to a concentration of […], and 100 μL of the solution was used for the administration. At 30 minutes after administration of each type of dextran, the tumors were harvested from the mice, and the tumor specimens were prepared in the same manner as in Example 4. The specimens were observed and photographed under a confocal laser microscope (Leica).

Substance: lysophosphatidic acid [LPA]
- delivery of doxorubicin from blood vessels to tumor [1]: delivery of doxorubicin from the blood vessels to tumors in the deep lobe was observed
- expression level (fluorescence intensity) of VE-cadherin from Z-stack images [2]: a strong fluorescence intensity on the cell membrane
- localization of VE-cadherin in tumor vascular endothelial cells [2]: VE-cadherin localized on the cell-cell junctions
- tumor growth (tumor volume) ([3]; LLC tumors, LPA 3 mg/kg i.p. once daily for seven days, 5-FU 100 mg/kg i.p. on days 7 and 14): some inhibitory effects on tumor growth as compared with the control
- appearance of tumors (blood flow) ([3]; LPA alone 3 mg/kg i.p. once daily for seven days): the tumors appeared reddish, indicating an increase in the blood flow
- tumor growth (tumor volume) [4]: some inhibitory effects on tumor growth as compared with the control
- delivery of 70 kDa FITC-labeled dextran to tumor [5]: delivery of 70 kDa and 2000 kDa dextrans to tumors in the deep lobe was observed
- delivery of 2000 kDa FITC-labeled dextran to tumor [5]: delivery of 70 kDa and 2000 kDa dextrans to tumors in the deep lobe was observed
